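Five compound concentrations were applied to cells in 96-well plates for 48 hours; endpoints were derived by simple linear interpolation of the resulting dose-response curve. GI50: concentration for 50% inhibition of growth.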 Activity calls are given as the source filed them. Cut-off read from the data, not from the text of the source: active = GI50 up to about 1.1 µM and inactive = higher.
Legend:
Test in all cases: NCI tumour cell line growth inhibition, 48 h
MDA-MB-231 = tested on: MDA-MB-231
Malme-3M = tested on: Malme-3M
T47D = tested on: T47D
U-251 = tested on: U-251
DU-145 = tested on: DU-145
SK-MEL-28 = tested on: SK-MEL-28
TK-10 = tested on: TK-10
NCI-H522 = tested on: NCI-H522
MOLT-4 = tested on: MOLT-4
Hs-578T = tested on: Hs-578T
SK-MEL-5 = tested on: SK-MEL-5
HL-60 = tested on: HL-60
BT-549 = tested on: BT-549
UO-31 = tested on: UO-31
A549 = tested on: A549
OVCAR-3 = tested on: OVCAR-3
UACC-62 = tested on: UACC-62
SF-295 = tested on: SF-295
NCI-H226 = tested on: NCI-H226
SN12C = tested on: SN12C
MCF7 = tested on: MCF7
COLO 205 = tested on: COLO 205
HCT-116 = tested on: HCT-116
KM12 = tested on: KM12
ACHN = tested on: ACHN
HT-29 = tested on: HT-29
OVCAR-5 = tested on: OVCAR-5
SW-620 = tested on: SW-620
SNB-75 = tested on: SNB-75
IGROV-1 = tested on: IGROV-1
PC-3 = tested on: PC-3
SF-539 = tested on: SF-539
SNB-19 = tested on: SNB-19
HOP-62 = tested on: HOP-62
HOP-92 = tested on: HOP-92
M14 = tested on: M14
NCI-H460 = tested on: NCI-H460
OVCAR-4 = tested on: OVCAR-4
CCRF-CEM = tested on: CCRF-CEM
NCI-H23 = tested on: NCI-H23
EKVX = tested on: EKVX
HCT-15 = tested on: HCT-15
SF-268 = tested on: SF-268
HCC 2998 = tested on: HCC 2998
CAKI-1 = tested on: CAKI-1
LOX IMVI = tested on: LOX IMVI
SR = tested on: SR
SK-MEL-2 = tested on: SK-MEL-2
OVCAR-8 = tested on: OVCAR-8
NCI/ADR-RES = tested on: NCI/ADR-RES
SK-OV-3 = tested on: SK-OV-3
MDA-MB-435 = tested on: MDA-MB-435
A498 = tested on: A498
MDA-N = tested on: MDA-N
786-0 = tested on: 786-0
RPMI-8226 = tested on: RPMI-8226
UACC-257 = tested on: UACC-257
RXF 393 = tested on: RXF 393
K562 = tested on: K562

CSc1nc(SC)c2c(C)cn(Cc3ccccc3)c2n1 was tested, and the GI50 (MDA-MB-231) was > 100 µM (inactive), the GI50 (Malme-3M) was > 100 µM (inactive) and the GI50 (T47D) was 33.9 µM (inactive). The GI50 (U-251) was > 100 µM (inactive), the GI50 (DU-145) was > 100 µM (inactive) and the GI50 (SK-MEL-28) was > 100 µM (inactive). For the same compound, the GI50 (TK-10) was > 100 µM (inactive), the GI50 (NCI-H522) was 98.4 µM (inactive) and the GI50 (MOLT-4) was 39 µM (inactive). For the same compound, the GI50 (Hs-578T) was > 100 µM (inactive), the GI50 (SK-MEL-5) was > 100 µM (inactive) and the GI50 (HL-60) was 34 µM (inactive). The GI50 (BT-549) was > 100 µM (inactive), the GI50 (UO-31) was 56.8 µM (inactive) and the GI50 (A549) was > 100 µM (inactive). The GI50 (OVCAR-3) was > 100 µM (inactive), the GI50 (UACC-62) was > 100 µM (inactive) and the GI50 (SF-295) was > 100 µM (inactive). The GI50 (NCI-H226) was > 100 µM (inactive), the GI50 (SN12C) was > 100 µM (inactive) and the GI50 (MCF7) was 45.4 µM (inactive). For the same compound, the GI50 (COLO 205) was > 100 µM (inactive), the GI50 (HCT-116) was 69.2 µM (inactive) and the GI50 (KM12) was > 100 µM (inactive). For the same compound, the GI50 (ACHN) was > 100 µM (inactive), the GI50 (HT-29) was 41.7 µM (inactive) and the GI50 (OVCAR-5) was > 100 µM (inactive). For the same compound, the GI50 (SW-620) was > 100 µM (inactive), the GI50 (SNB-75) was 79.6 µM (inactive) and the GI50 (IGROV-1) was > 100 µM (inactive). For the same compound, the GI50 (PC-3) was > 100 µM (inactive), the GI50 (SF-539) was 93.1 µM (inactive) and the GI50 (SNB-19) was > 100 µM (inactive). The GI50 (HOP-62) was > 100 µM (inactive), the GI50 (HOP-92) was 20.6 µM (inactive) and the GI50 (M14) was > 100 µM (inactive). For the same compound, the GI50 (NCI-H460) was 80.2 µM (inactive), the GI50 (OVCAR-4) was > 100 µM (inactive) and the GI50 (CCRF-CEM) was 51.4 µM (inactive). For the same compound, the GI50 (NCI-H23) was > 100 µM (inactive), the GI50 (EKVX) was > 100 µM (inactive) and the GI50 (HCT-15) was 70.1 µM. For the same compound, the GI50 (SF-268) was > 100 µM (inactive), the GI50 (HCC 2998) was 44.1 µM (inactive) and the GI50 (CAKI-1) was > 100 µM (inactive). For the same compound, the GI50 (LOX IMVI) was 60.4 µM (inactive), the GI50 (SR) was 32.4 µM (inactive) and the GI50 (SK-MEL-2) was > 100 µM (inactive). For the same compound, the GI50 (OVCAR-8) was > 100 µM (inactive), the GI50 (NCI/ADR-RES) was > 100 µM (inactive) and the GI50 (SK-OV-3) was > 100 µM (inactive). For the same compound, the GI50 (MDA-MB-435) was 33.2 µM (inactive), the GI50 (A498) was > 100 µM (inactive) and the GI50 (MDA-N) was 30.3 µM (inactive). The GI50 (786-0) was > 100 µM (inactive) and the GI50 (RPMI-8226) was 85.9 µM (inactive).
With Cc1cccc2c1C(=O)[C@@](C)([C@]1(C)Nc3cccc(C)c3C1=O)N2 the GI50 (MDA-MB-231) was > 100 µM (inactive), the GI50 (Malme-3M) was > 100 µM (inactive) and the GI50 (T47D) was > 100 µM (inactive). For the same compound, the GI50 (U-251) was > 100 µM (inactive), the GI50 (DU-145) was > 100 µM (inactive) and the GI50 (UACC-257) was > 100 µM (inactive). The GI50 (SK-MEL-28) was > 100 µM (inactive), the GI50 (NCI-H522) was > 100 µM (inactive) and the GI50 (MOLT-4) was > 100 µM (inactive). The GI50 (Hs-578T) was > 100 µM (inactive), the GI50 (SK-MEL-5) was 96.6 µM (inactive) and the GI50 (HL-60) was 0.499 µM (active). The GI50 (BT-549) was > 100 µM (inactive), the GI50 (UO-31) was > 100 µM (inactive) and the GI50 (A549) was > 100 µM (inactive). For the same compound, the GI50 (OVCAR-3) was > 100 µM (inactive), the GI50 (UACC-62) was > 100 µM (inactive) and the GI50 (SF-295) was > 100 µM (inactive). The GI50 (NCI-H226) was > 100 µM (inactive), the GI50 (SN12C) was > 100 µM (inactive) and the GI50 (MCF7) was > 100 µM (inactive). For the same compound, the GI50 (RXF 393) was > 100 µM (inactive), the GI50 (COLO 205) was > 100 µM (inactive) and the GI50 (HCT-116) was > 100 µM (inactive). The GI50 (KM12) was > 100 µM (inactive), the GI50 (ACHN) was > 100 µM (inactive) and the GI50 (HT-29) was > 100 µM (inactive). For the same compound, the GI50 (OVCAR-5) was > 100 µM (inactive), the GI50 (SW-620) was > 100 µM (inactive) and the GI50 (SNB-75) was 30.4 µM (inactive). The GI50 (IGROV-1) was > 100 µM (inactive), the GI50 (PC-3) was 38.7 µM (inactive) and the GI50 (SF-539) was > 100 µM (inactive). For the same compound, the GI50 (SNB-19) was > 100 µM (inactive), the GI50 (HOP-62) was > 100 µM (inactive) and the GI50 (M14) was > 100 µM (inactive). For the same compound, the GI50 (K562) was > 100 µM (inactive), the GI50 (NCI-H460) was > 100 µM (inactive) and the GI50 (OVCAR-4) was > 100 µM (inactive). The GI50 (CCRF-CEM) was 49.4 µM (inactive), the GI50 (NCI-H23) was > 100 µM (inactive) and the GI50 (EKVX) was > 100 µM (inactive). For the same compound, the GI50 (HCT-15) was over 100 µM, the GI50 (SF-268) was > 100 µM (inactive) and the GI50 (HCC 2998) was > 100 µM (inactive). The GI50 (CAKI-1) was > 100 µM (inactive), the GI50 (LOX IMVI) was > 100 µM (inactive) and the GI50 (SR) was > 100 µM (inactive). The GI50 (SK-MEL-2) was > 100 µM (inactive), the GI50 (OVCAR-8) was > 100 µM (inactive) and the GI50 (NCI/ADR-RES) was > 100 µM (inactive). The GI50 (SK-OV-3) was > 100 µM (inactive), the GI50 (MDA-MB-435) was 31.1 µM (inactive) and the GI50 (A498) was > 100 µM (inactive). The GI50 (MDA-N) was 98.4 µM (inactive), the GI50 (786-0) was > 100 µM (inactive) and the GI50 (RPMI-8226) was 11 µM (inactive).

From ChEMBL document CHEMBL1201862, “PubChem BioAssay data set” (2004)
